Where a SMILES comes first, the peptide text is derived from it. [ ]: non-standard residue; d: D form. The star is where a group is joined. OiPr = CC(C)O*; NHBu = CCCCN*

Consider 19 molecules from patent EP0069811A1, “Branched amides of L-aspartyl-D-amino acid dipeptides and compositions thereof” (PFIZER INC., priority 1981, dated 1983).

For one assay, the system named is expert taste panel. Description: Sweetness potency by comparison of gustatory sweetness with a sucrose standard (expert taste panel). To be noted: aqueous solutions compared with aqueous sucrose solutions of 7-9% by an expert taste panel. It is filed as in vivo. As for the experimental part:
The sweetness potency of the instant compounds was determined by comparison of their gustatory sweetnesses with sucrose. Aqueous solutions of the compound of formula (I) diluted to a suitable range of concentrations were compared with a sucrose standard by an expert taste panel. Comparisons were generally made with aqueous sucrose solutions of 7-9%, i.e., 7-9 g. per 100 ml. Higher sucrose concentrations have a distinctive mouthfeel which may influence results and lower sucrose concentration are not indicative of normal use situations. If, for example a 0.014% solution of the compound of formula (I) is judged to be equally as sweet as a 7% sucrose solution, then the sweetness potency of that compound is 7/0.014 = 500 x sucrose. All of the sweetness potency values stated herein for the compounds of the invention were determined by this method. At threshold concentrations (i.e., the lowest concentration at which sweetness is first noticed, which for sucrose is ordinarily at concentrations in the range of 2-3%), the potency of a sweetener, such as the compounds of the invention, is generally twice that observed by comparison of its gustatory sweetness with 7-9% solutions of sucrose.
Turning to `CC1CCCC(C)C1NC(=O)[C@@H](CO)NC(=O)[C@@H](N)CC(=O)O` (mixture of isomers) [Example 9, L-Aspartyl-D-serine N-(dl-cis,trans-2,6-dimethylcyclohexyl)amide], the Sweetness potency is 200 x sucrose.
Turning to `N[C@@H](CC(=O)O)C(=O)N[C@H](CO)C(=O)NC(C1CC1)C1CC1` [Example 1, L-Aspartyl-D-serine N-(dicyclopropylcarbinyl)amide], the Sweetness potency came out at 700 x sucrose.
Same read-out and setting: the same measure for `CC(C)C(NC(=O)[C@@H](CO)NC(=O)[C@@H](N)CC(=O)O)C(C)C` [Example 2, L-Aspartyl-D-serine N-(2,4-dimethyl-3-pentyl)amide]: 180 x sucrose; for `CC1(C)SC(C)(C)C1NC(=O)[C@@H](CO)NC(=O)[C@@H](N)CC(=O)O` [Example 3, L-Aspartyl-D-serine N-(2,2,4,4-tetramethylthietan-3-yl)amide]: 1200 x sucrose; for `CC1(C)C(NC(=O)[C@@H](CO)NC(=O)[C@@H](N)CC(=O)O)C(C)(C)S1(=O)=O` [Example 4, L-Aspartyl-D-serine N-(2,2,4,4-tetamethyl-1,1-dioxothietan-3-yl)amide]: 850 x sucrose.
Still for that read-out and setting: the same measure for `COC[C@@H](NC(=O)[C@@H](N)CC(=O)O)C(=O)NC(C1CC1)C1CC1` [Example 6, L-Aspartyl-D-O-methylserine N-(dicyclopropylcarbinyl)amide]: 85 x sucrose.
On the same count and under the same terms, in the case of `COC[C@@H](NC(=O)[C@@H](N)CC(=O)O)C(=O)NC1C(C)(C)SC1(C)C` [Example 7] it was 320 x sucrose; in that of `COC[C@@H](NC(=O)[C@@H](N)CC(=O)O)C(=O)NC1C(C)(C)S(=O)(=O)C1(C)C` [Example 8, L-Aspartyl-D-O-methylserine N-(2,2,4,4-tetramethyl-1,1-dioxothietan-3-yl)amide], 200 x sucrose.

The next assay deals with taste panel. Briefly: Taste panel evaluation of blends with sodium saccharin for taste acceptability and sweetness intensity against aqueous sucrose standards. The class given is in vivo. To be noted: single components. Here is the method:
Blends of L-aspartyl-D-serine N-(2,2,4,4-tetra- methylthietan-3-yl)amide and sodium saccharin were prepared and evaluated for taste acceptability and sweetness intensity by comparison with aqueous sucrose standards.
The % synergy was calculated according to the following formula [formula] where A is the actual sweetness determined by averaging the taste panel results and T is the theoretical sweetness determined from the composition of the mixtures by weight e.g., for the 1:4 blend the theoretical sweetness is (1/5 x 1200) + (4/5 x 300) = 480.
For `CC1(C)SC(C)(C)C1NC(=O)[C@@H](CO)NC(=O)[C@@H](N)CC(=O)O` [Example 3, L-Aspartyl-D-serine N-(2,2,4,4-tetramethylthietan-3-yl)amide], the “Sweetness potency factors used to calculate the theoretical sweetness of the blends” value is on record as 1200 x sucrose.
On the same count and under the same terms, the same measure for `O=C1NS(=O)(=O)c2ccccc21.[Na]` [sodium saccharin]: 300 x sucrose.

System in the next assay: not given
Assay: not given
The note with it: 5% sucrose standard; Ariyoshi et al.; cited from earlier work.
Turning to `CCCOC(=O)[C@@H](CO)NC(=O)[C@@H](N)CC(=O)O` [L-aspartyl-D-serine n-propyl ester], the “times as sweet as a 5% sucrose standard” value is given as 320 times.

Staying with this assay, now noted: prior-art values; cited from earlier work.
With `CC1CCC1C(=O)OC[C@@H](C)NC(=O)[C@@H](N)CC(=O)O` (some centres unmarked), the Sweetness potency was 160 x sucrose.
Consider `C[C@H](COC(=O)C1CCC1)NC(=O)[C@@H](N)CC(=O)O`, for which the Sweetness potency is 220 x sucrose.
Consider `C[C@H](COC(=O)C1CC1)NC(=O)[C@@H](N)CC(=O)O`, for which the Sweetness potency is reported as 200 x sucrose.
Consider `CC(C)OC(=O)[C@@H](C)NC(=O)[C@@H](N)CC(=O)O` [L-aspartyl-D-alanine isopropyl ester] (H-Asp-[dA]-OiPr), for which the Sweetness potency result is “up to 125 x sucrose”.
With `COC(=O)C(NC(=O)[C@@H](N)CC(=O)O)C(=O)OC1CCCCC1C` (stereo partly drawn) [L-aspartylaminomalonic acid methyl 2-methylcyclohexyl diester], the Sweetness potency is 6600 x sucrose.
On to `C[C@@H](NC(=O)[C@@H](N)CC(=O)O)C(=O)NC1CCCCC1` [cyclohexyl], for which the Sweetness potency was 100 x sucrose.
In the case of `CC(C)CNC(=O)[C@@H](C)NC(=O)[C@@H](N)CC(=O)O` [isobutyl], the Sweetness potency is recorded as 100 x sucrose.
Consider `CCCCNC(=O)[C@@H](C)NC(=O)[C@@H](N)CC(=O)O` [n-butvlamide] (H-Asp-[dA]-NHBu), for which the Sweetness potency is recorded as 125 x sucrose.
For the molecule `CCC(C)NC(=O)[C@@H](C)NC(=O)[C@@H](N)CC(=O)O` (some centres unmarked) [secondary butyl], the Sweetness potency is 100 x sucrose.
